Data reported in patent publication US20230128120A1, “OMEGA MURICHOLIC ACID AS A PREGNANE X RECEPTOR LIGAND FOR TREATING HEPATO-INTESTINAL DISEASES” (University of Washington, priority 2021, published 2023).
“Also recorded” adds a separate entry of the source.

Assays:
Assay type in all cases: cell-based
human PXR (hPXR) = biological target: T1, human PXR (hPXR) (Homo sapiens, UniProt O75469); test: Luciferase reporter assay with human PXR (hPXR) plasmid; conditions: in vitro at 5 µM
T1 construct: expressed in transfected cells
T1 sequence (O75469 1-434): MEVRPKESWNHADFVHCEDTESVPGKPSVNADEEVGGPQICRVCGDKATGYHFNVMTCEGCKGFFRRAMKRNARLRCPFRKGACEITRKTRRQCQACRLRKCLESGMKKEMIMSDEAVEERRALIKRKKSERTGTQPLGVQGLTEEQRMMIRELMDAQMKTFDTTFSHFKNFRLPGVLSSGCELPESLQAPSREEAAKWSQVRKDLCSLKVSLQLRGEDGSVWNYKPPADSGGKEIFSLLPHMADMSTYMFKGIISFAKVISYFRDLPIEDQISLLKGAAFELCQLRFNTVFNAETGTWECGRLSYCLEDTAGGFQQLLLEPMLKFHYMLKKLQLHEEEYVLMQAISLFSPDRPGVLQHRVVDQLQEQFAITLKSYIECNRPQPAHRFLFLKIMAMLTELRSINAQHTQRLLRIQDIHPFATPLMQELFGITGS
From the text: (§1) Data are expressed as average of relative luciferase units among the technical triplicates ± S.E. Asterisks (*) represent statistically significant difference as compared to the vehicle group (one-way ANOVA followed by Duncan’s post hoc test, p < 0.05).
(§2) The prototypical mPXR ligand pregnenolone 16α-carbonitrile (PCN) was used as a positive control (FIG. 4B right panel). […] The prototypical hPXR ligand rifampicin (Rif) was used as a positive control (FIG. 4B left panel).

mouse PXR (mPXR) = biological target: T2, mouse PXR (mPXR) (Mus musculus, UniProt O54915); test: Luciferase reporter assay with mouse PXR (mPXR) plasmid; conditions: in vitro at 1 µM and 10 µM
T2 construct: expressed in transfected cells
T2 sequence (O54915 1-431): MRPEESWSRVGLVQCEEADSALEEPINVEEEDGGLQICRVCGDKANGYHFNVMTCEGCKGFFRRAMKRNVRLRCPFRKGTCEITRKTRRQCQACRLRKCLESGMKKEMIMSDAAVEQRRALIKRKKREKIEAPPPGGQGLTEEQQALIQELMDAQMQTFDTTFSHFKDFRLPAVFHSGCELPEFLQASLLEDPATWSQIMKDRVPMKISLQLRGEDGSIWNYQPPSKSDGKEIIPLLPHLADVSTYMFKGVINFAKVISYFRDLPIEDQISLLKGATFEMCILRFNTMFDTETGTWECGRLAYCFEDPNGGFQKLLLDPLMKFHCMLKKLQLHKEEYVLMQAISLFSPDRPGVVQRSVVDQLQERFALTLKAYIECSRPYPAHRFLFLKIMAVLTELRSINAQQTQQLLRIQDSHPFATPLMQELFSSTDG
From the text: as §1, §2

human PXR = biological target: T3, human PXR (Homo sapiens, UniProt O75469); test: Reporter assay in LS intestinal cells transfected with human PXR + reporter; conditions: 24 h incubation, dose-response, up to the maximum tested concentration, four cell passages
T3 sequence (O75469 1-434): T1 sequence (O75469 1-434)
Method: Reporter assay was performed using LS intestinal cells transfected with human PXR + reporter. Incubation time was 24 h and a dose-response curve was plotted. Results were confirmed using four different cells passages.
Percent displacement of reporter from human PXR as a function of MDCA concentration was evaluated and the results are shown in FIG. 9.
A reporter assay was performed using LS intestinal cells transfected with human PXR + reporter. Incubation time was 24 h and a dose-response curve was plotted. Results were confirmed using four different cells passages.

SMILES	hPXR activation (relative luciferase units vs vehicle) (human PXR (hPXR))	mPXR activation (relative luciferase units vs vehicle) (mouse PXR (mPXR))	binding affinity towards PXR (percent displacement of reporter from human PXR) (human PXR)	binding affinity towards PXR (percent displacement of reporter from human PXR) (human PXR; listed as MDCA)
C[C@H](CCC(=O)O)[C@H]1CC[C@H]2[C@@H]3[C@@H](O)[C@H](O)[C@@H]4C[C@H](O)CC[C@]4(C)[C@H]3CC[C@]12C [omega muricholic acid, ω-muricholic acid]	weakly activated	activated	effective binding	–
C[C@H](CCC(=O)O)[C@H]1CC[C@H]2[C@@H]3C[C@H](O)[C@@H]4C[C@H](O)CC[C@]4(C)[C@H]3CC[C@]12C [murideoxycholic acid]	–	–	–	no binding affinity; also recorded: totally inactive
